Assays:
[1] = target: KIT (Homo sapiens, UniProt P10721); experiment: KIT in vitro biochemical kinase study (Caliper EZ Reader); conditions: FAM-labeled polypeptide, Caliper EZ Reader II; read-out: Enzymatic experiment KIT IC50
Method: (§1) In the present invention, the inhibitory activity of compounds against the CSF-1R activity was determined by using CSF-1R ADP-Glo assay. The compound-mediated inhibition effect was achieved by inhibiting the production of ADP from consumption of ATP, and the activities of compounds were evaluated by using the ADP-Glo kit (Promega, cat. No. V9101). The specific experimental process was as follows: • 1. The kinase reaction performed in the present invention was carried out in a 384-well plate (Perkinelmer, cat. No. 6007290), and 3.95 nM of CSF-1R, 500 μM of ATP and 0.2 mg/mL of polypeptide (Poly (Glu4, Try1), Sigma, cat. No. P0275) were respectively weighed and added to each well: • 2. following reagents were then added to each well to reach the final reaction system: 40 mM Tris, pH 7.5, 20 mM MgCl2, 0.01% Triton X-100, 0.1 mg/mL BSA, 2.5 mM DTT and 0.1% DMSO; • 3. the reaction was conducted at 30° C. for 60 min; • 4. then an equal volume of stop solution (ADP-Glo) was added to the kinase reaction system; • 5. the mixed solution was incubated at 25° C. for 60 min, and the kinase reaction was then terminated; • 6. a two-fold volume of detection reagent was then added to each well; • 7. the mixed solution was incubated at 25° C. for 30 min; • 8. the compound IC50 value was measured by using a plate reader (Tecan, M1000) and a four-parameter curve was generated in Graphpad Prism. B. KIT/PDGFRA In Vitro Biochemical Kinase Study • 1. Preparation of 1-fold kinase buffer and stop solution • 1.1 1-fold kinase buffer: 50 mM HEPES, pH 7.5, 0.0015% Brij-35. • 1.2 stop solution: 100 mM HEPES, pH 7.5, 0.015% Brij-35, 0.2% Coating Reagent #3 50 mM EDTA • 2. Preparation of compound solution • 2.1 Dilution of compound solution • 1) The final concentration of the compound solution was 40 μM. and the concentration of the prepared stock solution was 50 times of the final concentration, i.e., 2 mM. • 2) 80 μL of 100% DMSO was added to the second well of the 96-well plate, then 20 μL of 10 mM compound solution was added, and thereby 2 mM compound solution was prepared, 60 μL of 100% DMSO was added to other wells, 20 μL of compound was taken from the second well, added to the third well and diluted by 4 times. […]

[2] = target: PDGFRA (Homo sapiens, UniProt P16234); experiment: PDGFRA in vitro biochemical kinase study (Caliper EZ Reader); conditions: FAM-labeled polypeptide, Caliper EZ Reader II; read-out: Enzymatic experiment PDGFRA IC50
Method: as §1

Sequence of PDGFRA (P16234 24-1089): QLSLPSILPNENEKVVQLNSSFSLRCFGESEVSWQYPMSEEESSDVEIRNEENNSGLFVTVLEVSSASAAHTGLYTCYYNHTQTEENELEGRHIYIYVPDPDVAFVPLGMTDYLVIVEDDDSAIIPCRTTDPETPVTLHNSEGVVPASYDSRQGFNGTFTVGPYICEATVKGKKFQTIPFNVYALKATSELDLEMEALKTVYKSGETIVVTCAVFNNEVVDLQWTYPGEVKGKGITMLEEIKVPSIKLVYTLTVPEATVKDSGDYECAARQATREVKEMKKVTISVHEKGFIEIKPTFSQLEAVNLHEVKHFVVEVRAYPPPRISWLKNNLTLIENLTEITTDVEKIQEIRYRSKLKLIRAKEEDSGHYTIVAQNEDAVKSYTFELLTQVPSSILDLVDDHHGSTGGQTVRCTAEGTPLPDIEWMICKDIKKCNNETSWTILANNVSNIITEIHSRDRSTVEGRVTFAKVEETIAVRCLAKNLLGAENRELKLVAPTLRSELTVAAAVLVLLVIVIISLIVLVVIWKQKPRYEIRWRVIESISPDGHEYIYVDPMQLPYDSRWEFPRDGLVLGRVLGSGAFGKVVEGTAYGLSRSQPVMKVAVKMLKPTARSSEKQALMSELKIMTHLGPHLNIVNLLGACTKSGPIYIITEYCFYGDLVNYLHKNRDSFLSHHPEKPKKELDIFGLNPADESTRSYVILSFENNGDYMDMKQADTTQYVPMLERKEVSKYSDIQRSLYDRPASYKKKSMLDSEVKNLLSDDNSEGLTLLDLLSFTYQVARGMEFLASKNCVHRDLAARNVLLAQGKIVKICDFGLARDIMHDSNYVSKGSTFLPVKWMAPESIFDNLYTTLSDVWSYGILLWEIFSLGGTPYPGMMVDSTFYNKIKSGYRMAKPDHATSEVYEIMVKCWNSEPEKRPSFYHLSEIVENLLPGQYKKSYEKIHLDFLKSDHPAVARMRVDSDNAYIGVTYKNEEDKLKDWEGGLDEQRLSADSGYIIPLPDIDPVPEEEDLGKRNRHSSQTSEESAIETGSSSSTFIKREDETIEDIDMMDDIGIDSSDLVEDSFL
Sequence of KIT (P10721 26-976): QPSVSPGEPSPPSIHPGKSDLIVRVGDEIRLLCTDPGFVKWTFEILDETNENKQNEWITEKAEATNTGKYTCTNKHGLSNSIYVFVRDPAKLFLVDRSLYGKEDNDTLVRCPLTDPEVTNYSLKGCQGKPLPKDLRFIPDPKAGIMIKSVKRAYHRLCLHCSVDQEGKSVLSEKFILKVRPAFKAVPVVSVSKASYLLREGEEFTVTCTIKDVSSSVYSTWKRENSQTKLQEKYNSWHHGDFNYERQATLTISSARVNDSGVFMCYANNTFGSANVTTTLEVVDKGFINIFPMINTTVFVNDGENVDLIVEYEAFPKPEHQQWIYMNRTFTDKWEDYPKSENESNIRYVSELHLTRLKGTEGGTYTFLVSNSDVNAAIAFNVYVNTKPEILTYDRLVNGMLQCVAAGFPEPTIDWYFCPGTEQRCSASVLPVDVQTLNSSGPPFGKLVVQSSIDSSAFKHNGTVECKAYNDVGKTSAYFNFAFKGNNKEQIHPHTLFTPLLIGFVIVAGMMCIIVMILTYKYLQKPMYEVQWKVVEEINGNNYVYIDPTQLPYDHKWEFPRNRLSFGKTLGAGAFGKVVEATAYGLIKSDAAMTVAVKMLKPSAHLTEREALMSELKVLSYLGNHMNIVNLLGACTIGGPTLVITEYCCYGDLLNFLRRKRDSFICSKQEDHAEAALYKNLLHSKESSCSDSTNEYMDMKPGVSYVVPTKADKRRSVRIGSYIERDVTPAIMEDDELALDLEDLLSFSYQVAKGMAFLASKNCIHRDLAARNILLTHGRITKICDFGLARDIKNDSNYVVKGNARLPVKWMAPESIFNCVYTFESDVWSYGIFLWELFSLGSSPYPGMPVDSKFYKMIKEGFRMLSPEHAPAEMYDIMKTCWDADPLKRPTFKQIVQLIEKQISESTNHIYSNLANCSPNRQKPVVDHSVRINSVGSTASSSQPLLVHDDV

Cc1nc(-c2cnc(NC(C)C)[nH]c2=O)ccc1Cc1c[nH]c2ncc(F)cc12 [Example 5, 5-(5-((5-fluoro-1H-pyrrolo[2,3-b]pyridin-3-yl)methyl)-6-methylpyridin-2-yl)-2-(isopropylamino)pyrimidin-4(3H)-one]
IC50 [1]: 222 nM
IC50 [2]: 9270 nM

Cc1nc(-c2cnc(NC(C)C)n(C)c2=O)ccc1Cc1c[nH]c2ncccc12 [Example 7, 5-(5-((1H-pyrrolo[2,3-b]pyridin-3-yl)methyl)-6-methylpyridin-2-yl)-2-(isopropylamino)-3-methylpyrimidin-4(3H)-one]
IC50 [1]: 50.8 nM
IC50 [2]: 998 nM
